In brackets after ≈: the same amount, converted by molar mass.
What was measured:
[1] = tested on: Escherichia coli EC-1: VOGEL, mouse virulent; assay: MIC determination (CLSI), EC-1; type: cell-based; details: Escherichia coli, read-out: EC-1 (MIC)
Summary of the method: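 Broth dilution MIC per CLSI M7-A8, with 2-fold compound dilutions incubated overnight with a standard inoculum. MIC is the lowest concentration visibly inhibiting growth versus drug-free control; tested in duplicate, reporting the lower value when within 2-fold, with QC organisms and reference compounds required in range.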

[2] = target: T1, Pseudomonas aeruginosa LpxC enzyme (Pseudomonas aeruginosa, UniProt P47205); assay: IC50 assay, LpxC enzyme from P. aeruginosa (BioTrove RapidFire mass spectrometry); type: biochemical; details: P. aeruginosa LpxC enzyme 0.1 nM, 25° C., 1 hour, pH 8.0; read-out: PA: IC50
T1 construct: made in house; host or cells: E. coli
T1 sequence (P47205 1-303): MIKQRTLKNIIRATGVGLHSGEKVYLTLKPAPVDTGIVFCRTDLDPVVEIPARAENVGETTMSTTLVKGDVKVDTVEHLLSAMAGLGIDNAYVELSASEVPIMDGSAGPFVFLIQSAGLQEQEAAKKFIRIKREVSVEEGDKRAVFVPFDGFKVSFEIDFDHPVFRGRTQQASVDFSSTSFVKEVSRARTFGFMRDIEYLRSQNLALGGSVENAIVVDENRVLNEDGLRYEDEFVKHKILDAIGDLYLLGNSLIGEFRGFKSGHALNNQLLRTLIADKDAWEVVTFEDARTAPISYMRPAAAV
Summary of the method: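 P. aeruginosa LpxC reaction run 1 hour, stopped with 1 N HCl, and substrate-to-product conversion quantified by RapidFire mass spectrometry. IC50 calculated from percent conversion using a no-enzyme control.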

[3] = tested on: Acinetobacter baumannii/haemolyticus: Multidrug-resistant clinical isolate (AB-3167); assay: MIC determination (CLSI), AB-3167; type: cell-based; details: Acinetobacter baumannii/haemolyticus multidrug-resistant clinical isolate; overnight incubation; lower of duplicate values; read-out: AB-3167 (MIC)
Summary of the method: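 Broth dilution MIC per CLSI M7-A8, 2-fold concentration steps, overnight incubation, visual read of lowest concentration inhibiting growth versus drug-free control. Tested in duplicate; lower value reported if within 2-fold, otherwise repeated; QC organisms and reference drugs required within range.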

[4] = tested on: Pseudomonas aeruginosa UI-18: Wild-type (PA-7); assay: MIC determination (CLSI), PA-7; type: cell-based; details: Pseudomonas aeruginosa UI-18 wild-type; overnight incubation; lower of duplicate values; read-out: PA-7 (MIC)
Summary of the method: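 Broth dilution MIC per CLSI M7-A8, using 2-fold compound dilutions incubated overnight; MIC is the lowest concentration with no visible growth versus the drug-free control. Run in duplicate, lower value reported when within 2-fold. Control organisms and reference compounds were included for QC.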

[5] = tested on: Klebsiella pneumoniae: Ciprofloxacin-resistant isolate, expresses ESBL, clinical isolate (KP-3700); assay: MIC determination (CLSI), KP-3700; type: cell-based; details: overnight incubation, lower of duplicate values
Summary of the method: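 Broth dilution MIC per CLSI M7-A8 against the ciprofloxacin-resistant, ESBL-expressing clinical isolate, 2-fold concentration steps, overnight incubation, visual read of lowest growth-inhibiting concentration. Tested in duplicate; lower value reported when within 2-fold; control organisms and reference compounds required within range.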

Row | Compound | MIC [1] [µg/mL] | IC50 [2] [nM] | MIC [3] [µg/mL] | MIC [4] [µg/mL] | KP-3700 (MIC) [5] [µg/mL]
1 | CC(CCn1cc(-c2ccccc2C#N)cn1)(C(=O)NO)S(C)(=O)=O (centres unmarked) [Example 46, 4-[4-(2-cyanophenyl)-1H-pyrazol-1-yl]-N-hydroxy-2-methyl-2-(methylsulfonyl)butanamide] | 4 (≈ 11 µM) | 72.5 | > 64 | 32 (≈ 88.3 µM) | >64.0
2 | CC(CCn1cc(-c2ccc(C#N)cc2)cn1)(C(=O)NO)S(C)(=O)=O (centres unmarked) [Example 47, 4-[4-(4-cyanophenyl)-1H-pyrazol-1-yl]-N-hydroxy-2-methyl-2-(methylsulfonyl)butanamide] | 64 (≈ 177 µM) | 1.15 | > 64 | 4 (≈ 11 µM) | >64.0
3 | CC(CCn1cc(-c2cccc(C#N)c2)cn1)(C(=O)NO)S(C)(=O)=O (centres unmarked) [Example 48, 4-[4-(3-cyanophenyl)-1H-pyrazol-1-yl]-N-hydroxy-2-methyl-2-(methylsulfonyl)butanamide] | > 64 | 29.3 | > 64 | 64 (≈ 177 µM) | >64.0
4 | Cc1cc(O)ccc1-c1cnn(CCC(C)(C(=O)NO)S(C)(=O)=O)c1 (centres unmarked) [Example 49, N-hydroxy-4-[4-(4-hydroxy-2-methylphenyl)-1H-pyrazol-1-yl]-2-methyl-2-(methylsulfonyl)butanamide] | > 64 | 90.4 | > 64 | > 64 | >64.0
5 | Cc1cc(-c2cnn(CCC(C)(C(=O)NO)S(C)(=O)=O)c2)ccc1O (centres unmarked) [Example 50, N-hydroxy-4-[4-(4-hydroxy-3-methylphenyl)-1H-pyrazol-1-yl]-2-methyl-2-(methylsulfonyl)butanamide] | > 64 | 44.4 | > 64 | > 64 | >64.0
6 | COc1cccc(-c2cnn(CCC(C)(C(=O)NO)S(C)(=O)=O)c2)c1 (centres unmarked) [Example 51, N-hydroxy-4-[4-(3-methoxyphenyl)-1H-pyrazol-1-yl]-2-methyl-2-(methylsulfonyl)butanamide] | > 64 | 7.3 | > 64 | 16 (≈ 43.5 µM) | >64.0
7 | Cc1cc(-c2cnn(CCC(C)(C(=O)NO)S(C)(=O)=O)c2)ccc1F (centres unmarked) [Example 52, 4-[4-(4-fluoro-3-methylphenyl)-1H-pyrazol-1-yl]-N-hydroxy-2-methyl-2-(methylsulfonyl)butanamide] | 16 (≈ 43.3 µM) | 6.93 | > 64 | 2 (≈ 5.41 µM) | 64
8 | Cc1c(F)cccc1-c1cnn(CCC(C)(C(=O)NO)S(C)(=O)=O)c1 (centres unmarked) [Example 53, 4-[4-(3-fluoro-2-methylphenyl)-1H-pyrazol-1-yl]-N-hydroxy-2-methyl-2-(methylsulfonyl)butanamide] | 32 (≈ 86.6 µM) | 9.28 | > 64 | 16 (≈ 43.3 µM) | >64.0
9 | CC(CCn1cc(-c2ccc(Cl)cn2)cn1)(C(=O)NO)S(C)(=O)=O (centres unmarked) [Example 54, 4-[4-(5-chloropyridin-2-yl)-1H-pyrazol-1-yl]-N-hydroxy-2-methyl-2-(methylsulfonyl)butanamide] | > 64 | 6.94 | > 64 | 16 (≈ 42.9 µM) | >64.0
10 | CC(CCn1cc(-c2ccc(F)cc2F)cn1)(C(=O)NO)S(C)(=O)=O (centres unmarked) [Example 55, 4-[4-(2,4-difluorophenyl)-1H-pyrazol-1-yl]-N-hydroxy-2-methyl-2-(methylsulfonyl)butanamide] | 8 (≈ 21.4 µM) | 2.07 | > 64 | 2 (≈ 5.36 µM) | 64
11 | CC(CCn1cc(-c2cc(F)ccc2F)cn1)(C(=O)NO)S(C)(=O)=O (centres unmarked) [Example 56, 4-[4-(2,5-difluorophenyl)-1H-pyrazol-1-yl]-N-hydroxy-2-methyl-2-(methylsulfonyl)butanamide] | 32 (≈ 85.7 µM) | 6.75 | > 64 | 8 (≈ 21.4 µM) | >64.0
12 | CC(CCn1cc(-c2ccc3cc[nH]c3n2)cn1)(C(=O)NO)S(C)(=O)=O (centres unmarked) [Example 57, N-hydroxy-2-methyl-2-(methylsulfonyl)-4-[4-(1H-pyrrolo[2,3-b]pyridin-6-yl)-1H-pyrazol-1-yl]butanamide] | > 64 | 3.72 | > 64 | 64 (≈ 170 µM) | >64.0
13 | CC(CCn1cc(-c2ccc3c(c2)CCO3)cn1)(C(=O)NO)S(C)(=O)=O (centres unmarked) [Example 58, 4-[4-(2,3-dihydro-1-benzofuran-5-yl)-1H-pyrazol-1-yl]-N-hydroxy-2-methyl-2-(methylsulfonyl)butanamide] | > 64 | 1.17 | > 64 | 4 (≈ 10.5 µM) | >64.0
14 | CC(CCn1cc(-c2ccc(F)c(C#N)c2)cn1)(C(=O)NO)S(C)(=O)=O (centres unmarked) [Example 59, 4-[4-(3-cyano-4-fluorophenyl)-1H-pyrazol-1-yl]-N-hydroxy-2-methyl-2-(methylsulfonyl)butanamide] | > 64 | 11.6 | > 64 | 64 (≈ 168 µM) | >64.0
15 | COc1ccc(-c2cnn(CCC(C)(C(=O)NO)S(C)(=O)=O)c2)cc1F (centres unmarked) [Example 60, 4-[4-(3-fluoro-4-methoxyphenyl)-1H-pyrazol-1-yl]-N-hydroxy-2-methyl-2-(methylsulfonyl)butanamide] | 64 (≈ 166 µM) | 20.1 | > 64 | 8 (≈ 20.8 µM) | >64.0
16 | CC(CCn1cc(-c2ccc3c(c2)C(=O)CC3)cn1)(C(=O)NO)S(C)(=O)=O (centres unmarked) [Example 61, N-hydroxy-2-methyl-2-(methylsulfonyl)-4-[4-(3-oxo-2,3-dihydro-1H-inden-5-yl)-1H-pyrazol-1-yl]butanamide] | > 64 | 38.6 | > 64 | > 64 | >64.0
17 | CC(CCn1cc(-c2ccc3c(c2)CCC3=O)cn1)(C(=O)NO)S(C)(=O)=O (centres unmarked) [Example 62, N-hydroxy-2-methyl-2-(methylsulfonyl)-4-[4-(1-oxo-2,3-dihydro-1H-inden-5-yl)-1H-pyrazol-1-yl]butanamide] | > 64 | 0.754 | > 64 | 16 (≈ 40.9 µM) | >64.0
18 | CC(CCn1cc(-c2ccc3c(c2)OCCO3)cn1)(C(=O)NO)S(C)(=O)=O (centres unmarked) [Example 63, 4-[4-(2,3-dihydro-1,4-benzodioxin-6-yl)-1H-pyrazol-1-yl]-N-hydroxy-2-methyl-2-(methylsulfonyl)butanamide] | > 64 | 6.75 | > 64 | 4 (≈ 10.1 µM) | >64.0
19 | CC(CCn1cc(-c2ccc(C#N)c(Cl)c2)cn1)(C(=O)NO)S(C)(=O)=O (centres unmarked) [Example 64, 4-[4-(3-chloro-4-cyanophenyl)-1H-pyrazol-1-yl]-N-hydroxy-2-methyl-2-(methylsulfonyl)butanamide] | 64 (≈ 161 µM) | 0.62 | > 64 | 4 (≈ 10.1 µM) | >64.0
